For this experiment, the target named is human NaV 1.8 (Homo sapiens, UniProt Q9Y5Y9). Description: E-VIPR assay detecting and measuring NaV inhibition properties. To be noted: HEK cells expressing truncated human NaV 1.8. It counts as cell-based. The procedure, abridged:
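Membrane potential was followed by coumarin/oxonol FRET during electrical field stimulation of matrigel-seeded HEK cells carrying truncated human NaV1.8 plus KIR2.1. Dosing used 11 points, 3-fold steps, top 300 nM final, 0.625% DMSO, with or without 25% human serum.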

[1] abbreviates: no human serum, read-out: IC50 in the E-VIPR Assay.

Like-named read-outs stand apart in the source and are kept apart here.

human NaV 1.8, sequence (Q9Y5Y9 126-399 limits assumed): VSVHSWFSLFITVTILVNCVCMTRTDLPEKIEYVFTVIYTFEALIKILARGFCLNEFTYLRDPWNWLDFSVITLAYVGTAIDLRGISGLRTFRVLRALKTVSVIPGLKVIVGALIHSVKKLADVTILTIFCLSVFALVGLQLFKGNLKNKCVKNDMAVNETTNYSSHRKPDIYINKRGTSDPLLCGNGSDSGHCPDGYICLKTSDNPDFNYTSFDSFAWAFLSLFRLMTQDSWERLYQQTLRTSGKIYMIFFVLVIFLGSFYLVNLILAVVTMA
human NaV 1.8, sequence (Q9Y5Y9 660-890 limits assumed): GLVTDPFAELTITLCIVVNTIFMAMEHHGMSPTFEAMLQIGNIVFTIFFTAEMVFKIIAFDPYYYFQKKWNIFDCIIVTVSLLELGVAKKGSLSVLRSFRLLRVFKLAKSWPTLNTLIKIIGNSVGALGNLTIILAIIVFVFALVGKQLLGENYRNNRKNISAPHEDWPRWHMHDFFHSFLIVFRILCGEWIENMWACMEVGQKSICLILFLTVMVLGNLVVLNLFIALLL
human NaV 1.8, sequence (Q9Y5Y9 1148-1722 limits assumed): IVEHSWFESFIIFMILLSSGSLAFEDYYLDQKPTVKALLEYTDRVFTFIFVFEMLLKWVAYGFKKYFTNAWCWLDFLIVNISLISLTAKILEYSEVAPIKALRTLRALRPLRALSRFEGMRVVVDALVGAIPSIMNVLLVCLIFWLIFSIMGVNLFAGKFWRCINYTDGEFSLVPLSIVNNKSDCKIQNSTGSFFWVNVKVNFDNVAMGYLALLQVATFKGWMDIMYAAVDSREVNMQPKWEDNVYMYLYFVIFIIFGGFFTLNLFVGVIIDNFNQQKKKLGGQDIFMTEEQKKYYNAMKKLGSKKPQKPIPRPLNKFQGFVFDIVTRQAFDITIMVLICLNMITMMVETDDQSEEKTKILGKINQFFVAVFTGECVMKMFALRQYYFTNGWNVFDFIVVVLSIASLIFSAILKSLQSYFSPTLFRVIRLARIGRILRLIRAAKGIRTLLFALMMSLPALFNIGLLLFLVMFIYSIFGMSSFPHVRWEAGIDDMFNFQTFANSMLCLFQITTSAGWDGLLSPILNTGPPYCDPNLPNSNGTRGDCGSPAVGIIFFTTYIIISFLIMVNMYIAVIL

What is called IC50 is the concentration that inhibits the measured activity by half. Consider `COc1c([C@H]2[C@H](C(=O)Nc3ccc(-c4nnc(C)o4)nc3)O[C@@](C)(C(F)(F)F)[C@H]2C)ccc(F)c1F` [Compound 398, (2R,3S,4S,5R)-3-(3,4-difluoro-2-methoxyphenyl)-4,5-dimethyl-N-(6-(5-methyl-1,3,4-oxadiazol-2-yl)pyridin-3-yl)-5-(trifluoromethyl)-tetrahydrofuran-2-carboxamide], for which the IC50 under setting [1] lay in the range of 10 to 100 nM.

Take `C[C@H]1[C@@H](c2ccc(F)c(F)c2OCCO)[C@H](C(=O)Nc2ncnc3c2cnn3C(C)(C)C)O[C@@]1(C)C(F)(F)F` [Compound 563, (2R,3S,4S,5R)-N-(1-(tert-butyl)-1H-pyrazolo[3,4-d]pyrimidin-4-yl)-3-(3,4-difluoro-2-(2-hydroxyethoxy)phenyl)-4,5-dimethyl-5-(trifluoromethyl)tetrahydrofuran-2-carboxamide]: the IC50 under setting [1] is at least 1000 nM.

On to `COc1c([C@H]2[C@H](C(=O)Nc3ccnc(N4CCCNCC4=O)c3)O[C@@](C)(C(F)(F)F)[C@H]2C)ccc(F)c1F` [Compound 481, (2R,3S,4S,5R)-3-(3,4-difluoro-2-methoxyphenyl)-4,5-dimethyl-N-(2-(2-oxo-1,4-diazepan-1-yl)pyridin-4-yl)-5-(trifluoromethyl)tetrahydrofuran-2-carboxamide], for which, under setting [1], the IC50 lay within 10 to 100 nM. The same measure, in the same setting: with `COc1c(C2C(C(=O)Nc3ccnc(S(C)(=N)=O)c3)OC(C)(C(F)(F)F)C2C)ccc(F)c1F` (single isomer, unassigned) [Compound 54, 3-(3,4-difluoro-2-methoxy-phenyl)-4,5-dimethyl-N-[2-(methylsulfonimidoyl)-4-pyridyl]-5-(trifluoromethyl)tetrahydrofuran-2-carboxamide] the figure was under 10 nM; with `COc1c([C@H]2[C@H](C(=O)NCC3CC3)O[C@@](C)(C(F)(F)F)[C@H]2C)ccc(F)c1F` [Compound 270, (2R,3S,4S,5R)-N-(cyclopropylmethyl)-3-(3,4-difluoro-2-methoxyphenyl)-4,5-dimethyl-5-(trifluoromethyl)tetrahydrofuran-2-carboxamide], 100 to 1000 nM. With `COc1c([C@H]2[C@H](C(=O)Nc3cncn3C)O[C@@](C)(C(F)(F)F)[C@H]2C)ccc(F)c1F` [Compound 313, (2R,3S,4S,5R)-3-(3,4-difluoro-2-methoxyphenyl)-4,5-dimethyl-N-(1-methyl-1H-imidazol-5-yl)-5-(trifluoromethyl)-tetrahydrofuran-2-carboxamide], the IC50 under setting [1] was in the range of 10 to 100 nM. Same read-out and setting: with `Cc1nn(C(F)F)cc1NC(=O)[C@@H]1O[C@@](C)(C(F)(F)F)[C@@H](C)[C@H]1c1ccc(F)c(F)c1OCc1cn[nH]c1` [Compound 599, (2R,3S,4S,5R)-N-[1-(difluoromethyl)-3-methyl-pyrazol-4-yl]-3-[3,4-difluoro-2-(1H-pyrazol-4-ylmethoxy)phenyl]-4,5-dimethyl-5-(trifluoromethyl)tetrahydrofuran-2-carboxamide] the figure was under 10 nM. The same measure, in the same setting: with `Cc1nn(C2COC2)cc1NC(=O)[C@@H]1O[C@@](C)(C(F)(F)F)[C@@H](C)[C@H]1c1ccc(F)c(F)c1OCCN1CCOCC1` [Compound 594, (2R,3S,4S,5R)-3-(3,4-difluoro-2-(2-morpholinoethoxy)phenyl)-4,5-dimethyl-N-(3-methyl-1-(oxetan-3-yl)-1H-pyrazol-4-yl)-5-(trifluoromethyl)tetrahydrofuran-2-carboxamide] the figure was 100 to 1000 nM. Still for that read-out and setting: as for `CC(C)Oc1c([C@@H]2[C@@H](C(=O)Nc3ccnc(S(C)(=N)=O)c3)O[C@](C)(C(F)(F)F)[C@@H]2C)ccc(F)c1F` (single isomer, unassigned) [Compound 117], the figure is 100 to 1000 nM; as for `COc1c([C@H]2[C@H](C(=O)Nc3ccnc(N4CC(N(C)C)CC4=O)c3)O[C@@](C)(C(F)(F)F)[C@H]2C)ccc(F)c1F` (single isomer, unassigned) [Compound 505, rel-(2R*,3S*,4S*,5R*)-3-(3,4-difluoro-2-methoxyphenyl)-N-(2-(4-(dimethylamino)-2-oxopyrrolidin-1-yl)pyridin-4-yl)-4,5-dimethyl-5-(trifluoromethyl)tetrahydrofuran-2-carboxamide], 10 to 100 nM.

Take `COc1c([C@H]2[C@H](C(=O)Nc3ccnc([C@@H](O)[C@H](C)O)c3)O[C@@](C)(C(F)(F)F)[C@H]2C)ccc(F)c1F` (single isomer, unassigned) [Compound 204, rel-(2R*,3S*,4S*,5R*)-3-(3,4-difluoro-2-methoxyphenyl)-N-(2-((1R,2S)-1,2-dihydroxypropyl)pyridin-4-yl)-4,5-dimethyl-5-(trifluoromethyl)tetrahydrofuran-2-carboxamide]: the concentration for half-maximal inhibition (IC50) under setting [1] is under 10 nM. The same measure, in the same setting: with `COc1c(C2C(C(=O)Nc3ccnc(C(O)C(C)O)c3)OC(C)(C(F)(F)F)C2C)ccc(F)c1C` (single isomer, unassigned) [Compound 144] the figure was under 10 nM. Same read-out and setting: as for `COCC(C)(N)c1cc(NC(=O)[C@@H]2O[C@@](C)(C(F)(F)F)[C@@H](C)[C@H]2c2ccc(F)c(F)c2OC)ccn1` (single isomer, unassigned) [Compound 352, rel-(2R*,3S*,4S*,5R*)-N-(2-(2-amino-1-methoxypropan-2-yl)pyridin-4-yl)-3-(3,4-difluoro-2-methoxyphenyl)-4,5-dimethyl-5-(trifluoromethyl)-tetrahydrofuran-2-carboxamide], the figure is under 10 nM.

In the case of `COc1c([C@H]2[C@H](C(=O)Nc3ccnc(N4CCNCC4=O)c3)O[C@@](C)(C(F)(F)F)[C@H]2C)ccc(F)c1F` [Compound 411, (2R,3S,4S,5R)-3-(3,4-difluoro-2-methoxyphenyl)-4,5-dimethyl-N-(2-(2-oxopiperazin-1-yl)pyridin-4-yl)-5-(trifluoromethyl)-tetrahydrofuran-2-carboxamide], the IC50 under setting [1] is under 10 nM. Still for that read-out and setting: with `COc1c([C@H]2[C@H](C(=O)Nc3ccc(C#CCO)nc3)O[C@@](C)(C(F)(F)F)[C@H]2C)ccc(F)c1F` [Compound 403, (2R,3S,4S,5R)-3-(3,4-difluoro-2-methoxyphenyl)-N-(6-(3-hydroxyprop-1-yn-1-yl)pyridin-3-yl)-4,5-dimethyl-5-(trifluoromethyl)-tetrahydrofuran-2-carboxamide] the figure was 10 to 100 nM; with `COc1c([C@H]2[C@H](C(=O)Nc3cnc4nncn4c3)O[C@@](C)(C(F)(F)F)[C@H]2C)ccc(F)c1F` [Compound 388, (2R,3S,4S,5R)-N-([1,2,4]triazolo[4,3-a]pyrimidin-6-yl)-3-(3,4-difluoro-2-methoxyphenyl)-4,5-dimethyl-5-(trifluoromethyl)tetrahydrofuran-2-carboxamide], 10 to 100 nM.

As to `CCOc1c([C@H]2C[C@@](C)(C(F)(F)F)O[C@@H]2C(=O)Nc2ccnc(C(O)CO)c2)ccc(F)c1F` (single isomer, unassigned) [Compound 709], the IC50 (in the presence of human serum (compound numbers followed by *), read-out: IC50 in the E-VIPR Assay, performed in the presence of human serum) is at least 1000 nM.

On to `COc1c([C@H]2[C@H](C(=O)Nc3ccc(C(=O)O)nc3)O[C@@](C)(C(F)(F)F)[C@H]2C)ccc(F)c1C(F)F` (single isomer, unassigned) [Compound 176], for which, under setting [1], the IC50 is under 10 nM.

As for `CCOc1c([C@H]2[C@H](C(=O)Nc3cncc(S(C)(=O)=O)c3)O[C@@](C)(C(F)(F)F)[C@H]2C)ccc(F)c1F` (stereo in doubt) [Compound 107, rel-(2R,3S,4S,5R)-3-(2-ethoxy-3,4-difluorophenyl)-4,5-dimethyl-N-(5-(methylsulfonyl)pyridin-3-yl)-5-(trifluoromethyl)tetrahydrofuran-2-carboxamide], the IC50 under setting [1] was under 10 nM. Same read-out and setting: as for `CNC(COC)c1ccc(NC(=O)[C@@H]2O[C@@](C)(C(F)(F)F)[C@@H](C)[C@H]2c2ccc(F)c(F)c2OC)cn1` (single isomer, unassigned) [Compound 414, rel-(2R*,3S*,4S*,5R*)-3-(3,4-difluoro-2-methoxyphenyl)-N-(6-(2-methoxy-1-(methylamino)ethyl)-pyridin-3-yl)-4,5-dimethyl-5-(trifluoromethyl)-tetrahydrofuran-2-carboxamide], the figure is 100 to 1000 nM; as for `Cc1nn(C(F)F)cc1NC(=O)[C@@H]1O[C@@](C)(C(F)(F)F)[C@@H](C)[C@H]1c1ccc(F)c(F)c1OCC1COC1` [Compound 579, (2R,3S,4S,5R)-3-(3,4-difluoro-2-(oxetan-3-ylmethoxy)phenyl)-N-(1-(difluoromethyl)-3-methyl-1H-pyrazol-4-yl)-4,5-dimethyl-5-(trifluoromethyl)tetrahydrofuran-2-carboxamide], under 10 nM.

With `Cc1nocc1NC(=O)[C@@H]1O[C@@](C)(C(F)(F)F)[C@@H](C)[C@H]1c1ccc(F)c(F)c1OCCN1CC(OC(F)F)C1` [Compound 628, (2R,3S,4S,5R)-3-(2-(2-(3-(difluoromethoxy)azetidin-1-yl)ethoxy)-3,4-difluorophenyl)-4,5-dimethyl-N-(3-methylisoxazol-4-yl)-5-(trifluoromethyl)tetrahydrofuran-2-carboxamide], under setting [1], the IC50 was in the range of 10 to 100 nM. Turning to `Cc1nocc1NC(=O)[C@@H]1O[C@@](C)(C(F)(F)F)[C@@H](C)[C@H]1c1ccc(F)c(F)c1OCCN1CC(C)(O)C1` [Compound 626, (2R,3S,4S,5R)-3-(3,4-difluoro-2-(2-(3-hydroxy-3-methylazetidin-1-yl)ethoxy)phenyl)-4,5-dimethyl-N-(3-methylisoxazol-4-yl)-5-(trifluoromethyl)tetrahydrofuran-2-carboxamide], the IC50 under setting [1] fell in the range of 100 to 1000 nM. On the same count and under the same terms, as for `C[C@H]1[C@@H](c2ccc(F)c(F)c2OCCN=S(C)(C)=O)[C@H](C(=O)Nc2ccnc(CO)c2)O[C@@]1(C)C(F)(F)F` [Compound 640, (2R,3S,4S,5R)-3-(2-(2-((dimethyl(oxo)-λ^6-sulfaneylidene)amino)ethoxy)-3,4-difluorophenyl)-N-(2-(hydroxymethyl)pyridin-4-yl)-4,5-dimethyl-5-(trifluoromethyl)tetrahydrofuran-2-carboxamide], the figure is 10 to 100 nM.
